# What was measured:
# [1] = system: African green monkey Vero kidney cells (ATCC CCL-81); assay: Cytotoxicity, alamarBlue cell viability; assay type: cell-based; conditions: highest concentration tested (128 μg/mL); 24 hours
# Procedure: The cytotoxicity of the diketopiperazines was assessed in vitro against African green monkey Vero kidney cells (ATCC CCL-81). Cells were cultured in 15 mL of Eagle's minimal essential medium (Sigma) supplemented with 10% (v/v) fetal bovine serum (VWR), […] penicillin and 0.1 mg/mL streptomycin in T75 cm^2 cell culture flasks. Cells were incubated for 24 hours at 37° C. in a humidified atmosphere of 5% CO2. Culture medium was refreshed every 2-3 days and cells were not allowed to exceed 80% confluency. At 80% confluency the cells were counted, diluted and plated into 96 well flat bottom cell culture plates (Corning) at a cell density of 10,000 cells per well in 90 μL of growth medium. The plates were incubated at 37° C. in a humidified atmosphere of 5% CO2 for 24 hours to allow cells to adhere to the plate before treatment. After 24 hours, adjuvants were solubilised in DMSO, serially diluted and added to the wells at final concentrations ranging from 1 μg/mL to 128 μg/mL. DMSO was used as the vehicle at a final concentration of 1% in the wells. The plates were incubated at 37° C. in a humidified atmosphere of 5% CO2 for 24 hours after which alamarBlue (Invitrogen) was added to each well at 10% of the culture volume. Fluorescence was monitored using a Thermo Scientific Varioskan Flash plate reader at 560/12 excitation, 590 nm emission both at time zero and 4 hrs after alamarBlue addition. After subtracting the time zero emission 590 nm measurement from the final reading, the inferred percentage of cell viability relative to the vehicle control wells was calculated.
# [2] = system: Botrytis cinerea (ATCC 90479); assay: Adjuvancy: agar growth inhibition assay (colony diameter) with fungicide and/or adjuvant; assay type: cell-based; conditions: for inherent fungicidal activity: adjuvant on its own, any of the concentrations tested
# Description: As a measure of the adjuvant activity in relation to the activity of the fungicide alone (e.g., pyraclostrobin) to B. cinerea a value of percent inhibition (adjuvant and fungicide) divided by percent inhibition (fungicide) can be defined, with higher values desired. A value of 1 would therefore represent equal activity of the adjuvant/fungicide combination to the fungicide alone, whereas a value above 1 would represent higher activity with the adjuvant/fungicide combination than the fungicide alone. The actives of the present invention may have a value greater than 1. Preferably greater than 1.5, most preferably greater than 2.
# Percent Inhibition—The percent inhibition will be understood to represent the amount the fungicide and/or adjuvant that inhibits the visible growth of the microorganism after 48 hours incubation at 22° C. relative to vehicle treated controls. This is calculated using the following formula:
# where: • ØC=diameter of the colony grown on agar supplemented with vehicle (i.e. vehicle treated control), and • ØT=diameter of the colony grown on agar supplemented with fungicide and/or adjuvant formulated in an appropriate vehicle (i.e. solvent such as water C2H5OH, CH3OH, CH3CN, DMSO).
# Fold Change—The fold change is a measure of the adjuvant/fungicide combination in inhibiting a microorganism compared to the fungicide alone. This indicates how the adjuvant performs relative to the fungicide alone. This is calculated using the following formula:
# where: • INHAF=percent inhibition of fungal growth when treated with fungicide and adjuvant, and • INHF=percent inhibition of fungal growth when treated with fungicide alone.
# Botrytis cinerea (ATCC 90479) was cultured on Difco Potato Dextrose Agar (PDA) for 7 days with diurnal UV cycles (12 h UV light and 12 h dark). Spores were harvested in a buffered, sterile saline solution (w/v: 0.9% NaCl with 1% Tween 80) and counted using a haemocytometer. The spore suspension was adjusted to a final concentration of 8.5×10^6 spores/mL to create a standardised inoculum.
# To prepare hyphal fragments for adjuvant testing, 8.5×10^4 spores were used to inoculate 10 mL of Difco Potato Dextrose Broth in a 150×25 mm tube. The tube was incubated at 220 RPM, 22° C. for 48 hours. To create hyphal fragments from the culture, the culture was transferred to a 50 mL plastic conical tube containing approximately 20 sterile 5 mm diameter glass beads and vortexed for 5 min. After vortexing the tube was allowed to stand for 5 min to allow large mycelial clumps to settle and then the top layer containing hyphal fragments was removed and used as inocula for growth inhibition assays.
# Fungicides and adjuvants were dissolved in methanol and added to molten PDA (˜50° C.) and then the agar was distributed in the wells of 12 well multiwell plates (1 mL/well). The plates were cooled to room temperature and 10 μL of hyphal inoculum was added to the centre of each well. The plates were incubated at 22° C. for 48 hours and then the colony diameter was measured using a digital caliper. The biological growth control consisted of hyphae and vehicle (0.07% methanol), the negative control was media and vehicle (0.07% methanol).
# The effect of the adjuvants on fungicidal activity is represented as fold increase in growth inhibition. A value of 1 indicates no increase in fungicidal activity. A value less than 1 indicates reduced fungicidal activity and a value greater than 1 indicates increased fungicidal activity.
# [3] = system: butterhead lettuce leaves; assay: Phytotoxicity on leaves, necrosis score; assay type: in vivo; conditions: scale 0 (no necrosis) to 3 (extended necrosis)
# Procedure: (§1) Phytotoxicity of the diketopiperazines was assessed on soybean and butterhead lettuce leaves. Soybean seeds were inoculated with Bradyrhizobium japnicum and sown in Levington's M3 compost in 9 cm^2 plastic pots. Soybean plants were given supplementary lighting with SON-T bulbs. Biological control was used to prevent thrip damage (Biolone—Amblyseius cucumeris). The glasshouse temperatures were set to maintain 22° C.±2 during the day and 19° C.±2 at night. Lettuce plants were grown in the same manner without rhizobacteria inoculation. Supplementary lighting was provided by LED bulbs. All plants were maintained as well watered and grown for fourteen days. Test compounds/extracts were resuspended in 2% DMSO ([…]). Synperonic Al1 LQ was used a positive control and UEP-100 as a negative control. Treatments were applied as six 10 μL droplets on the leaf's surface. Phytotoxic tissue damage was assessed 1- and 7-days post-treatment and on a scale of 0 to 3. The phytotoxic effect of the compounds/extract at 1 g/L is represented as a mean phytotoxic necrosis score, where 0=no necrosis; 1=slight spot-like necrosis of the inoculation site; 2=ring-shaped necrosis; 3=extended necrosis.
# soybean leaves = assay: Phytotoxicity on leaves, necrosis score; assay type: in vivo; conditions: Soy, 1 g/L, scale 0 (no necrosis) to 3 (extended necrosis)
# Procedure: as §1
# [4] = Pyra 0.0156 μg/mL, adjuvant 128 μg/mL, vs pyraclostrobin alone, 48 h, 22° C.
# [5] = Pyra 0.0313 μg/mL, adjuvant 128 μg/mL, vs pyraclostrobin alone, 48 h, 22° C.
# [6] = Pyra 0.0625 μg/mL, adjuvant 128 μg/mL, vs pyraclostrobin alone, 48 h, 22° C.
Structure (SMILES),cytotoxicity against Vero cells [1],"Fold Change in Growth Inhibition [2, 4]","Fold Change in Growth Inhibition [2, 5]","Fold Change in Growth Inhibition [2, 6]",inherent fungicidal activity [2],"Fold Change in Growth Inhibition ([2]; Teb 0.095 μg/mL, adjuvant 25 μg/mL, vs tebuconazole alone)","Fold Change in Growth Inhibition ([2]; Teb 0.095 μg/mL, adjuvant 50 μg/mL, vs tebuconazole alone)","Fold Change in Growth Inhibition ([2]; Teb 0.095 μg/mL, adjuvant 100 μg/mL, vs tebuconazole alone)","Fold Change in Growth Inhibition ([2]; Teb 0.19 μg/mL, adjuvant 25 μg/mL, vs tebuconazole alone)","Fold Change in Growth Inhibition ([2]; Teb 0.19 μg/mL, adjuvant 50 μg/mL, vs tebuconazole alone)","Fold Change in Growth Inhibition ([2]; Teb 0.19 μg/mL, adjuvant 100 μg/mL, vs tebuconazole alone)","Mean Score (phytotoxic necrosis) ([3]; Day 1, 1 g/L)","Mean Score (phytotoxic necrosis) ([3]; Day 7, 1 g/L)","Mean Score (phytotoxic necrosis) ([3]; Day 7, 1 g/L, listed as DKP (1a))",Mean Score (phytotoxic necrosis) (soybean leaves; Day 1),Mean Score (phytotoxic necrosis) (soybean leaves; Day 7),"Mean Score (phytotoxic necrosis) (soybean leaves; Day 7, listed as DKP (1a))"
O=C1N/C(=C\c2ccccc2)C(=O)N2CCC[C@@H]12 [DKP (Ic)],did not exhibit any cytotoxicity,1.52,3.14,1.48,did not demonstrate any inherent fungicidal activity,–,–,–,–,–,–,–,–,–,–,–,–
CN1C(=O)[C@@H]2CCCN2C(=O)/C1=C/c1ccccc1 [DKP (Ia)],did not exhibit any cytotoxicity,2.18,3.31,1.87,did not demonstrate any inherent fungicidal activity,1.97,1.78,2.00,4.39,1.78,2.76,0,did not exhibit any phytotoxicity,0,0,did not exhibit any phytotoxicity,0
CN1C(=O)[C@@H]2CCCN2C(=O)/C1=C\c1ccccc1 [DKP (Ib)],did not exhibit any cytotoxicity,–,–,–,did not demonstrate any inherent fungicidal activity,–,–,–,–,–,–,–,–,–,–,–,–
O=C1N/C(=C/c2ccccc2)C(=O)N2CCC[C@@H]12 [DKP (Id)],did not exhibit any cytotoxicity,–,–,–,did not demonstrate any inherent fungicidal activity,–,–,–,–,–,–,–,–,–,–,–,–
